Laboratory results published in patent EP0476853B1, “Triphenodioxazine dyes” (ZENECA LIMITED, priority 1990, dated 1992).

Assay: Solubility of the dyebase in aqueous acid solvent systems
Assay type: physicochemical
Experimental: The solubility of the product from step (a) was then determined in the following aqueous solvent systems.

## NCCNc1ccc2c(c1)Oc1c(Cl)c3c(c(Cl)c1=N2)Oc1cc(NCCN)ccc1N=3 [Formula (3)]
solvent: 25% formic acid (aqueous)
  Solubility (% w/w): 5.3 % w/w
solvent: 25% lactic acid (aqueous)
  Solubility (% w/w): 4.8 % w/w
solvent: 50% aqueous acetic acid (comparison)
  solubility: 2.52 % w/w
solvent: 50% formic acid (aqueous)
  Solubility (% w/w): 7.5 % w/w
solvent: 50% lactic acid (aqueous)
  Solubility (% w/w): 4.9 % w/w
solvent: 85% formic acid (aqueous)
  Solubility (% w/w): 24.7 % w/w
solvent: 88% lactic acid (aqueous)
  Solubility (% w/w): 4.8 % w/w
